The structures appear in SMILES notation. Like-named read-outs stand apart in the source and are kept apart here.

One experiment relates to S. gordonii biofilm. Nature of the experiment: Mono-species biofilm of S. gordonii. It counts as cell-based, Streptococcus gordonii. The note with it: treated with lead compound. The method, then: (§1) Growth of commensal and dual-species biofilms. Overnight broth cultures were transferred by 1:50 dilutions into fresh THB medium and were allowed to grow until mid-exponential phase (OD470 nm=0.6) before transfer to 96-well plates. For mono-species biofilms, 1:100 dilution of the individual cultures was added to the 96-well plate containing the desired concentration of compound or DMSO. After incubation for 16 h, the biofilms were gently washed with PBS in triplicate and the biofilms were quantified with crystal violet staining. For dual-species biofilms, 1:100 dilution of S. mutans was used and 1:10 dilution of the commensal species (S. sanguinius or S. gordonii) was used as inoculum to seed the 96-well plate containing the desired concentration of compound or DMSO. After incubation for 16 h, the biofilms were scratched off with a sterile spatula and suspended in 100 μL of PBS, the biofilm samples were vortexed. To determine the total number of viable bacterial cells (colony forming units, CFU), 100 μl from dispersed, 16 h biofilms were serially diluted in potassium phosphate buffer and plated in duplicate on BAP. The commensal species could be differentiated from S. mutans due to their characteristic green rings.

Another experiment relates to S. mutans biofilm. Nature of the experiment: S. mutans biofilm formation and inhibition assay (96-well plates, crystal violet). The settings on record: for IC50: Streptococcus mutans. The experiment is classed as cell-based, Streptococcus mutans.
In a further experiment the test system is S. sanguinis. Nature of the experiment: Growth of commensal S. sanguinis. The experiment is classed as cell-based, Streptococcus sanguinis. The procedure: (§2) Cell viability of S. mutans, S. gordonii, S. sanguinis, Aggregatibacter actinomycetemcomitans and Actinomyces. […] The number of colony-forming units (CFU) per milliliter of each sample treated with selected compounds at different concentrations was enumerated after incubation for 24 h at 37° C. and compared to the values obtained from the DMSO control group. Overnight broth cultures were transferred by 1:50 dilutions into fresh THB medium and were allowed to grow until mid-exponential phase (OD470 nm 0.6) before transfer to 96-well plates containing desired concentration of the compound. After 16 h incubation, bacterial growth was measured at OD470, and normalized to the DMSO control (100%).
Cell viability of S. mutans and commensal S. gordonii and S. sanguinis. Effects of lead small molecules on cell viability were examined. The number of colony-forming units (CFU) per milliliter for each compound at different concentrations was determined after incubation for 24 h at 37° C. and compared to the values obtained from the DMSO control group.
Cell viability of S. mutans and commensal S. gordonii and S. sanguinis. […] DMSO served as a control group and provided a relative comparison for the number of colony-forming units (CFU) per milliliter for each compound at different concentrations was determined after incubation for 24 h at 37° C. The final concentration of DMSO used in the assays was 1%.

Experiment [1] deals with Aggregatibacter actinomycetemcomitans VT1169. Nature of the experiment: Growth of Aggregatibacter actinomycetemcomitans. It counts as cell-based. The settings on record: 200 μM. The procedure: as §2
Experiment [2] deals with Actinomyces naeslundii T14VJ1. Nature of the experiment: Growth of Actinomyces naeslundii. It counts as cell-based. The note with it: 200 μM; printed as slight inhibition (>20%). The procedure:
as §2

The target in the next experiment is GtfC (Streptococcus mutans serotype c (strain ATCC 700610 / UA159), UniProt P13470). Nature of the experiment: Zymographic assay on GtfC from S. mutans GtfBD mutants. The settings on record: 25 μM. The experiment is classed as biochemical. The method, then:
(§3) FIGS. 3A-3C show Gtf patterns of S. mutans UA159 and its mutant variants. Culture supernatants were prepared from S. mutans UA159 and gtf double mutants, and then subjected to SDS-PAGE analysis with equivalent amount of proteins in each lane. […] The intensity of the bands were quantified using ImageJ in comparison to DMSO.
(§4) Supernatants containing Gtf proteins prepared from S. mutans bacterial cultures were subjected to SDS-PAGE analysis and zymographic assay. […] The same amount of the protein sample was used as controls and visualized by protein staining (FIG. 3A, top panels). The lead compounds were also tested against individual Gtfs using supernatant proteins harvested from cultures of various double mutants.
(§5) Construction of S. mutans Gtfs mutants. GtfB, GtfC single mutant, and GtfBC double mutant in which gtf was replaced with a kanamycin resistance cassette, aphA3 (encoding an aminoglycoside phosphotransferase), were gifts from Dr. Robert Burne's Laboratory, University of Florida, Gainesville, Fla. The GtfD mutant was constructed by an overlapping PCR ligation strategy using an erythromycin resistance cassette isolated from the IFDC2 cassette (Xie, Z., Okinaga, T., Qi, F., Zhang, Z. & Merritt, J. Cloning-independent and counterselectable markerless mutagenesis system in Streptococcus mutans. Appl Environ Microbiol 77, 8025-8033 (2011)).

Another experiment relates to gtfs expression. Nature of the experiment: Real time RT-PCR of gtfs expression. It counts as cell-based, Streptococcus mutans. The settings on record: S. mutans UA159, different concentrations, calibrated by 16S rRNA. The procedure: The expression of gtfs was examined by real time RT-PCR. The mRNA expression levels were calibrated by 16S rRNA. Values represent the means±standard deviations from three independent experiments. […] The P value>0.05 is considered to be not significant.
The effect of this potent small molecule on the gene expression of gtfs was also examined. The relative expression level of gtfs was evaluated by real time RT-PCR.
A general note: In qPCR the cycle at which signal appears reflects the starting amount.

In a further experiment the test system is S. sanguinis biofilm. Nature of the experiment: Mono-species biofilm of S. sanguinis. It counts as cell-based, Streptococcus sanguinis. The note with it: up to 200 μM. The procedure: as §1
For the next experiment, the target named is GtfB (Streptococcus mutans serotype c (strain ATCC 700610 / UA159), UniProt P08987). Nature of the experiment: Zymographic assay on GtfB from S. mutans GtfCD mutants. It counts as biochemical. The note with it: 25 μM. The procedure: as §3, §4, §5
Sequence of GtfB (P08987 35-1476 limits assumed): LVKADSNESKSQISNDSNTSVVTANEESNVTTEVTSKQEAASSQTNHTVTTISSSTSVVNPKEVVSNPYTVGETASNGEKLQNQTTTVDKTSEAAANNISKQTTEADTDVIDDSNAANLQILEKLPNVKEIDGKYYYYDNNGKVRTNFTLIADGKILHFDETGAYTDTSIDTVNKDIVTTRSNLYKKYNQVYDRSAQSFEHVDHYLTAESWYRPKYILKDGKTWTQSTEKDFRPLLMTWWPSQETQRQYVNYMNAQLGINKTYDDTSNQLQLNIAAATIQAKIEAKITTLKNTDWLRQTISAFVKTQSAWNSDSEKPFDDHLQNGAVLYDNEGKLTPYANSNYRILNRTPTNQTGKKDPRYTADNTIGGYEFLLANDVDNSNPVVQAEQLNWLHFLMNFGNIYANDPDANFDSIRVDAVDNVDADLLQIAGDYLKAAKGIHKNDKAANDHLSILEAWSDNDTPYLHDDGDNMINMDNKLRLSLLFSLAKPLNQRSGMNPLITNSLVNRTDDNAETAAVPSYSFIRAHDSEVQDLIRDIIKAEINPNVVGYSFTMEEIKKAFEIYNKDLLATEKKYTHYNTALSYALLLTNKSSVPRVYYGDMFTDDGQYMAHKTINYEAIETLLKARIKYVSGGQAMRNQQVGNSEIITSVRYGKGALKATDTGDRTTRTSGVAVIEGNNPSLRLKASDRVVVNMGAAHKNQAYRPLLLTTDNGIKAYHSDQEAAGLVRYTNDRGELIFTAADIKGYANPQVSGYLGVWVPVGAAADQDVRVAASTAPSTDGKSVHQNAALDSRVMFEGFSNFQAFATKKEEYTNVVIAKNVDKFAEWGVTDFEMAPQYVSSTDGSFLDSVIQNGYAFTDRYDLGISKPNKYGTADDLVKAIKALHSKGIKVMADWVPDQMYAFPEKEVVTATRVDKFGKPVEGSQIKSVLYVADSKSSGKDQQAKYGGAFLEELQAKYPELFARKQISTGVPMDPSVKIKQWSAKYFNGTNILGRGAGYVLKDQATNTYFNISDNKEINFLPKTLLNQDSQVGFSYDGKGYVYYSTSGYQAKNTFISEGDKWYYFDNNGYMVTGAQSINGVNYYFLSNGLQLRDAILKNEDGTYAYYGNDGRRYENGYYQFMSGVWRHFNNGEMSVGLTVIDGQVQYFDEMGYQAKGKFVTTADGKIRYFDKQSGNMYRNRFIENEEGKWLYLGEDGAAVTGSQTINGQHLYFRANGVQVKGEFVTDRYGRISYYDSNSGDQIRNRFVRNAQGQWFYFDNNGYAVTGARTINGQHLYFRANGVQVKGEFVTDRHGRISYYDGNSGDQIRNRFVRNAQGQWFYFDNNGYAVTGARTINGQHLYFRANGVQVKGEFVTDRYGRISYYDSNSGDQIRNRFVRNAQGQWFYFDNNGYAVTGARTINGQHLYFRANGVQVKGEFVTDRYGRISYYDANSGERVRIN
Another experiment concerns S. mutans colonization. Nature of the experiment: Sucrose-dependent Drosophila colonization model. It counts as in vivo. The settings on record: 50 μM.

Sequence of GtfC (P13470 35-1455 limits assumed): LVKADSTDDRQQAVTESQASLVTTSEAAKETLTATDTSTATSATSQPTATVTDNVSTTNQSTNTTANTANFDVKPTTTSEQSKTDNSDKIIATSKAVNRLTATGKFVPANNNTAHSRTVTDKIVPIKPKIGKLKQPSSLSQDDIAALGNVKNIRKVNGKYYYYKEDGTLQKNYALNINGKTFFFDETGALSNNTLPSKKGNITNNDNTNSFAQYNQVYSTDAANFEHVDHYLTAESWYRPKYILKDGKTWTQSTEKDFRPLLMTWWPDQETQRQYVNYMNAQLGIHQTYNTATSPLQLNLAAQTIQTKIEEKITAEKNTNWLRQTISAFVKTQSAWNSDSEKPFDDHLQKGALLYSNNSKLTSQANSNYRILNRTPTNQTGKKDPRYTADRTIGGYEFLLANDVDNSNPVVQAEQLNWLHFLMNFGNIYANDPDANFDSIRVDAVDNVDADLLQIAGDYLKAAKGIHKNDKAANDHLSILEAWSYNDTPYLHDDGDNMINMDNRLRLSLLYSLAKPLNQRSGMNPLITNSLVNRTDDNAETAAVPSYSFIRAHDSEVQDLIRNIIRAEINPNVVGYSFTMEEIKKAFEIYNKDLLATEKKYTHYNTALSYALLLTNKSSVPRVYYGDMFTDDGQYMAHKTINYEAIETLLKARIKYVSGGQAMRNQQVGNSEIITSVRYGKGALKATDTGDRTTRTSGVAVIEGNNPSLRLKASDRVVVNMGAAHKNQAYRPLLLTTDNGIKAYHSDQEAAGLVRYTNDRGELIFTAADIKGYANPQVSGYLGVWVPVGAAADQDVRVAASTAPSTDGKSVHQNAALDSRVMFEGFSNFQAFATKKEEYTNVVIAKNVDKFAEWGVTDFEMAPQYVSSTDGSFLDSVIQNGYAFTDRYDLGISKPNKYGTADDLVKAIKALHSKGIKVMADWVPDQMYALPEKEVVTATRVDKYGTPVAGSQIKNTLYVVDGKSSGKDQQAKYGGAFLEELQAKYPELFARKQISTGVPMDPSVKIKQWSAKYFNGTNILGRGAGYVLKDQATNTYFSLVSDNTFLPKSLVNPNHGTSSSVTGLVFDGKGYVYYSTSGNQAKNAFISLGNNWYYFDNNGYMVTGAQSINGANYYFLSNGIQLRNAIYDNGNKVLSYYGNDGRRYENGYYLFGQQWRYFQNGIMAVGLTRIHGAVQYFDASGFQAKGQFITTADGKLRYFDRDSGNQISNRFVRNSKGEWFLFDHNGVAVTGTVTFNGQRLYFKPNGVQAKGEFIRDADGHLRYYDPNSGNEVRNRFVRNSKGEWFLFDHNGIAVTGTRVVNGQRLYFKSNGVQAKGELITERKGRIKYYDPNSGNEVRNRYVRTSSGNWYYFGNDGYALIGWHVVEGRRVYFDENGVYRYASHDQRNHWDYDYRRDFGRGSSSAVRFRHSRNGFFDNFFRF
Description for S. mutans colonization: Briefly, Gfp tagged S. mutans bacteria were infected into flies along with the treatment appropriate compound at 100 μM in a feeding-assay.
Mid-log phase THB cultures of Gfp-tagged (green fluorescent protein) S. mutans UA159 were spun down and resuspended in a solution containing 5% sucrose and 50 μM of the compound. 100 μL of resuspended cells were spotted onto a sterile filter that was placed on the surface of 5 mL of solidified 5% sucrose agar in a plastic vial. The vials were allowed to dry at room temperature for 30 minutes prior to addition of flies. Male Canton S flies (1-3 days old) were treated with antibiotics for 2 days and starved for 3 hours prior to the addition to vials supplied with S. mutans (10 flies per vial). The colonization of flies by Gfp-tagged strains were analyzed by Nikon elipse 90i microscope, equipped with an Epi-fluorescence and NIS elements AR imaging system.
The intensity of the fluorescence was measured in the guts of the flies fed with the Gfp tagged bacteria after 7 days of infection.
Cultures of Gfp-tagged (green fluorescent protein) S. mutans UA159 grown to middle log phase were spun down and re-suspended in a solution containing 5% sucrose and 50 μM of each compound. 100 μL of re-suspended cells were aliquoted onto a sterile filter that was placed on the surface of 5 mL of solidified 5% sucrose agar in a plastic vial. Upon the drying of the vials at room temperature for 30 min, the flies were introduced to the vessels. Male Canton S flies (1-3 days old) were treated with antibiotics for 2 days and starved for 3 h before the addition to vials supplied with S. mutans (10-14 flies per vial). Nikon elipse 90i microscope, equipped with an Epi-fluorescence and NIS elements AR imaging system was used to analyze the colonization of flies by Gfp-tagged strains.

As to `NC(=O)c1ccccc1NC(=O)c1cc2cc([N+](=O)[O-])ccc2s1` [#G43], in the experiment with S. gordonii biofilm, the “S. gordonii biofilm formation” value is on record as “slight increase”. Also, the “inhibition of S. mutans biofilms at 12.5 μM” value in the experiment with S. mutans biofilm (12.5 μM, crystal violet assay) was “more than 85%”. Besides, in the experiment with S. sanguinis (200 μM, OD470), the “effect on S. sanguinis growth” value is “did not have any effect on bacterial growth”. Also, in [1], the “inhibition of Aggregatibacter actinomycetemcomitans growth” value is on record as “no significant inhibition”. The “inhibition of Actinomyces naeslundii growth” value in experiment [2] is reported as greater than 20%. Also, the “inhibition of GtfC activity (ImageJ band intensity)” value against GtfC is given as 80%. Besides, in the experiment with gtfs expression, the “expression of gtfs versus DMSO” value is given as “no significant difference was observed”. Besides, the “S. sanguinis biofilm formation versus control” value in the experiment on S. sanguinis biofilm was “No significant difference”. Besides, the “inhibition of GtfB activity (ImageJ band intensity)” value against GtfB turned out to be 80%.
Consider `Oc1cc(O)cc(/C=C/c2ccc(O)c(O)c2)c1` [Piceatannol], for which, in the experiment on S. mutans colonization, the “fluorescence of Gfp tagged S. mutans in fly guts after 7 days” value was “significant decrease in fluorescence”. Also, the IC50 with S. mutans biofilm (Table 3, read-out: Biofilm Inhibition IC50) amounted to 52 ± 6 µM; in the experiment on S. mutans biofilm (Table 4, stilbenes, NI = no inhibition, read-out: Biofilm IC50) it was 52 ± 6 µM; in the experiment with S. mutans biofilm (Table 8, stilbenes, NI = no inhibition, read-out: Biofilm IC50), 52 ± 6 µM; in the experiment on S. mutans biofilm (read-out: S. mutans biofilm IC50), 52 µM. Further, in the experiment on S. sanguinis (400 μM), the “decrease of S. sanguinis cell density” value is recorded as 15-18%. Moreover, in the experiment with S. sanguinis (Streptococcus sanguinis, at 52 μM, read-out: growth of S. sanguinis inhibited), the inhibition at 52 µM is less than 10%.

In general, IC50 refers to the concentration that inhibits the measured activity by half.

Values taken from US11866416B2, “Streptococcus mutans glucosyl transferase inhibitors for dental caries therapy” (UAB Research Foundation, priority 2018, dated 2024).
